{"source": "patent US10292998B1", "about": "“Compositions and methods for prevention and treatment of eye infections” (priority 2018, dated 2019)", "key": {"[1]": {"system": "bacteria on the surface of the eyeball", "assay": "Bacterial count on the surface of the eyeball after eye drops of PVP-I/NAC combinations", "format": "in vivo, human", "conditions": "NAC alone", "from_the_text": "The combinations were then applied, with one or more drops of the composition, each between 7 and 30 microliters in total volume, applied by syringe to the eye of a patient over a period of between 30 and 180 seconds. […] In comparison, experiments using NAC alone was ineffective in lowering bacterial count."}, "[2]": {"system": "bacterial and viral infections", "assay": "Treatment and prevention of eye infections, summary of the experiments", "format": "in vivo, human", "from_the_text": "Experiments have determined that PVP-I can be mixed with N-acetylcysteine (NAC), preferably in combination with an aqueous solution such as saline or water for improved lubrication, to form a medical eye drop treatment, which has the unexpected result of greatly reducing the bacteria count while simultaneously maintaining the pain at a tolerable level, or in some cases reducing the pain to a non-perceptible level. The active treatment components are preferably mixed by stirring at room temperature (that is, roughly 15-25° C.) and added to an aqueous solution. The PVP-I concentration of the mixture can be as low as 1.25% by volume of the treatment composition without substantially reducing its effectiveness at preventing eye infections of bacterial, viral, and fungal varieties.\nExperiments were performed with differing ratios of PVP-I, NAC, and aqueous solution in combination. The PVP-I percentage by volume was varied between 0.5% and 80%, and the NAC percentage by volume was varied between 0.5% and 10%. The combinations were then applied, with one or more drops of the composition, each between 7 and 30 microliters in total volume, applied by syringe to the eye of a patient over a period of between 30 and 180 seconds.\nAn average eye drop contains 35 microliters, but the space between the human eye and the eyelid can only contain, in an average adult human, approximately 7 microliters of liquid. A human instinctively blinks upon addition of an eye drop to the eye, thereby forcing out most of the eye drop. As a result, only a fraction of a first eye drop will remain in the eye to mix with a second eye drop. […] As a result, the composition described above is not achieved."}, "[3]": {"system": "bacteria on the eye surface", "conditions": "0.5%-0.7% PVP-I solution by volume dripped into the eye over 30 seconds, repeated every 90 seconds four times; cited from earlier work"}, "viral conjunctivitis": {"system": "viral conjunctivitis", "conditions": "cited from earlier work"}, "[4]": {"conditions": "cited from earlier work"}}}
{"compound": "CC(=O)N[C@@H](CS)C(=O)O", "note": "[NAC, N-acetylcysteine]", "values": [{"measurement": "lowering bacterial count", "setting": "[1]", "value": "ineffective"}, {"measurement": "treating or preventing infections", "setting": "[2]; NAC without PVP-I", "value": "ineffective"}]}
{"compound": "Povidone-iodine [PVP-I]", "values": [{"measurement": "discomfort", "setting": "[2]; summary of experiments", "value": "highly uncomfortable"}, {"measurement": "treating and preventing bacterial infections", "setting": "[2]; summary of experiments", "value": "effective"}, {"measurement": "treating viral infections", "setting": "[2]; summary of experiments", "value": "ineffective"}, {"measurement": "reduction of bacteria on the eye surface", "setting": "[3]", "value": 99.9, "unit": "%"}, {"measurement": "treating pre-existing infections, especially viral infections such as viral conjunctivitis", "setting": "viral conjunctivitis; PVP-I without NAC", "value": "largely ineffective"}, {"measurement": "effect on viral conjunctivitis infections", "setting": "viral conjunctivitis; solution of 1.25% PVP-I by volume without NAC, previous study", "value": "no significant effect"}, {"measurement": "tolerability on the eye", "setting": "[4]; 1.25% or 2.5% PVP-I concentrations", "value": "tolerable but still highly irritating"}, {"measurement": "pain during application", "setting": "[4]; 10% PVP-I concentration by volume, surface of the eye", "value": "intolerable"}, {"measurement": "pain on application to the human eye", "setting": "[4]; PVP-I especially at concentrations greater than 2.5% by volume", "value": "extreme immediate pain and a continuing burning sensation"}]}
